Test results taken from PMC12775434, “Ultra-large virtual screening unveils potent agonists of the neuromodulatory orphan receptor GPR139” (Nature Communications, 2025).
Several values for one entry are separate records, joined by “and”; a condition that tells them apart may be missing. Identical values can stand only once.

How the values were obtained:
GPR139 [1] = biological target: T1, GPR139 (Homo sapiens, UniProt Q6DWJ6); assay: Ca2+ mobilization assay, agonist mode, stable GPR139-CHOk1 cell line; format: cell-based
T1 sequence (Q6DWJ6 1-353): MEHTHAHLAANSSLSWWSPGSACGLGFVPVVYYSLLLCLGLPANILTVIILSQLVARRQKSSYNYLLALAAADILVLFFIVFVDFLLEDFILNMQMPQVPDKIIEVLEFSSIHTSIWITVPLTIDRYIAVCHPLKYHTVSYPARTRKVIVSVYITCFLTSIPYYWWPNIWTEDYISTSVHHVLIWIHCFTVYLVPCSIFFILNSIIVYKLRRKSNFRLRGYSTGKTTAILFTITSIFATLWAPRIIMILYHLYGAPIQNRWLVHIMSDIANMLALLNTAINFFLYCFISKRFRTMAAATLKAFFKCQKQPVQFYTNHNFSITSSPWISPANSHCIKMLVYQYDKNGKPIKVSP
Description: Primary screening and pharmacological characterization of compounds were performed using a CHO-K1 cell line that stably expresses human GPR139 (GPR139-CHOk1). The GPR139-CHOk1 cell line was kindly provided by H. Lundbeck A/S, Denmark[24]. GPR139-CHOk1 cells were grown in Ham’s F-12 Kaighn’s Modification Medium (ThermoFisher #21127030) supplemented with 10% dialyzed fetal bovine serum (US origin, ThermoFisher #26400044), 100 units/mL Penicillin-Streptomycin (ThermoFisher #15140122), and 1 mg/mL Geneticin (ThermoFisher #11811031). […] M1R-CHOk1 cells were purchased from The Missouri S&T cDNA Resource Center (#CEM100TN00). M1R-CHOk1 cells were grown in Ham’s F12 Medium (ThermoFisher #21765029) supplemented with 10% fetal bovine serum (Brazilian origin, ThermoFisher #10270106), 100 units/mL Penicillin-Streptomycin, and 0.25 mg/mL Geneticin. HEK293A cells transiently transfected with GPR139 were used for additional pharmacological assessment of signaling pathways activated by GPR139. HEK239A cells were generously provided by Dr. Asuka Inoue, Tohoku University, Japan. HEK293A cells were grown in Dulbecco’s Modified Eagle Medium (ThermoFisher #31966047) supplemented with 10% dialyzed fetal bovine serum and 100 units/mL Penicillin-Streptomycin. Cell lines were maintained at 37 °C in humidified incubator equilibrated with 5% CO2.
(§1) 30,000 GPR139- or M1R-CHOk1 cells/well were seeded in black clear bottom tissue culture treated 96-well plates (Greiner #655090) and grown for 20–24 h. Cells were washed with HEPES buffer (Hank’s Balanced Salt Solution (HBBS) supplemented with 20 mM HEPES, 1 mM MgCl2, and 1 mM CaCl2; pH 7.4). Cells were loaded with 50 µL of 2 µM Fluo-4 AM dye (ThermoFisher #F14202) in HEPES buffer supplemented with 2.5 mM probenecid and 0.01% Pluronic F-68 (ThermoFisher #24040032) for 1 h at 37 °C. Cells were washed with HEPES buffer. 50 µL HEPES buffer supplemented with 2.5 mM probenecid was added, and the cells were incubated for 10 min at 37 °C before measurement. 50 µL test compounds diluted in HEPES buffer from DMSO stocks (final DMSO concentration of maximally 0.3%) were added automatically after baseline measurements. The intracellular calcium mobilization was measured on a FlexStation 3 Multimode Microplate Reader (Molecular Devices) at 37 °C with filters for excitation of 485 nm and emission of 525 nm.
(§2) Our primary compound screening protocol consisted of two subsequent steps that allowed to screen for agonists and antagonists simultaneously. In the first step, the screening compounds were applied at 10 µM to test for agonist activity (agonist mode). Following 20 min incubation with the compounds added in the first step, in the second step, an EC80 concentration (800 nM) of the reference agonist Lundbeck Cmp 1a was applied to test for antagonist activity (antagonist mode).
Pharmacological data and statistical analyses were performed in GraphPad Prism v9–10 (Graphpad Software Inc., San Diego, CA), which are also specifically described in the figure and table legends. The functional assay responses were normalized to buffer (0%) and Lundbeck Cmp 1a or JNJ-63533054 (100%), for Ca^2+ and IP1 experiments in the GPR139-CHOk1 stable cell line or Ca^2+, G protein activation, and arrestin-3 recruitment experiments in the HEK293A cells transiently transfected with GPR139, respectively. Data are from at least three independent experiments, unless stated otherwise. Concentration-response curves were fitted applying non-linear regression using the log (agonist) versus response model with variable slope. ANOVA was applied for comparing results and determining statistical significance.

GPR139 [2] = biological target: T1, GPR139; assay: Ca2+ mobilization assay, antagonist mode (EC80 800 nM Lundbeck Cmp 1a after 20 min preincubation), GPR139-CHOk1; format: cell-based
Description: as §1
as §2, with “(antagonist mode). In the agonist mode (first step) response is seen only with compounds having agonist activity (Cmp 1a), but not with non-receptor-binding compounds (Vehicle) or antagonists (NCRW0105-E06) (Supplementary Fig. 14). […] No antagonist compounds were identified in this study.” for “(antagonist mode).”

[3] = Agonist mode, individual replicates (Supplementary Figure 1)
[4] = individual replicates (Supplementary Figure 1)

SMILES	Ca2+ signal (% of Cmp 1a) (GPR139 [1]; [3])	Ca2+ signal (% of Cmp 1a) (GPR139 [2]; [4])	also measured
C[C@H](NC(=O)C1(OCc2ccccc2)CCOCC1)c1ccccc1 [Compound 26, C[C@H](NC(=O)C1(CCOCC1)OCC=2C=CC=CC2)C=3C=CC=CC3]	2.84 % of Cmp 1a and -5 % of Cmp 1a and 4.48 % of Cmp 1a	89.3069 % of Cmp 1a and 86.2472 % of Cmp 1a and 83.3433 % of Cmp 1a	
CC1(C)COc2cc(NC(=O)NCc3cccnn3)ccc21 [Compound 52, CC1(C)COC=2C=C(NC(=O)NCC=3C=CC=NN3)C=CC21]	1.65 % of Cmp 1a and 1.26 % of Cmp 1a and 1.78 % of Cmp 1a	71.4617 % of Cmp 1a and 78.215 % of Cmp 1a and 78.5023 % of Cmp 1a	Ca2+ signal (% of Cmp 1a) (GPR139 [1]; primary screen, 10 µM compound, agonist mode, three columns = independent experiments): 1.65 % of Cmp 1a and 1.26 % of Cmp 1a and 1.78 % of Cmp 1a
CC(Sc1nnc(C(C)(C)C)[nH]1)C(=O)NC(C)c1ccccc1 (stereo not drawn) [Compound 51, CC(NC(=O)C(C)SC1=NN=C(N1)C(C)(C)C)C=2C=CC=CC2]	-5 % of Cmp 1a and -3 % of Cmp 1a and 10 % of Cmp 1a	68.4513 % of Cmp 1a and 72.762 % of Cmp 1a and 87.4722 % of Cmp 1a	
CN(Cc1ncc(Cl)n1C)c1nc2cc([N+](=O)[O-])ccc2[nH]1 [Compound 40, CN(CC1=NC=C(Cl)N1C)C2=NC=3C=C(C=CC3N2)[N+](=O)[O-]]	-0.934 % of Cmp 1a and 6 % of Cmp 1a and 11 % of Cmp 1a	84.3072 % of Cmp 1a and 83.9821 % of Cmp 1a and 105.029 % of Cmp 1a	
Cc1ccc(C(C)(C)NC(=O)Nc2cnc3nccn3c2)cn1 [Compound 56, CC=1C=CC(=CN1)C(C)(C)NC(=O)NC=2C=NC3=NC=CN3C2]	5.3 % of Cmp 1a	82.8713 % of Cmp 1a	
CN(Cc1nnc[nH]1)c1nc(-c2cc(Cl)cc(Cl)c2)no1 [Compound 25, CN(CC1=NN=CN1)C2=NC(=NO2)C=3C=C(Cl)C=C(Cl)C3]	4.25 % of Cmp 1a and 1 % of Cmp 1a and 14 % of Cmp 1a	70.9298 % of Cmp 1a and 72.5727 % of Cmp 1a and 87.7637 % of Cmp 1a	
CC(NC(=O)Cc1coc(-c2cccs2)n1)c1ccccc1 (stereo not drawn) [Compound 1.44, CC(NC(=O)CC1=COC(=N1)C2=CC=CS2)C=3C=CC=CC3]			calcium mobilization response relative to Lundbeck Cmp 1a (GPR139 [1]; 10 µM compound, agonist mode): 43%; Ca2+ signal (% of Cmp 1a) (GPR139 [1]; Agonist mode, individual replicates (Supplementary Figure 4)): 88 % of Cmp 1a and 15 % of Cmp 1a and 25 % of Cmp 1a; fold decrease in potency on substitution of the central oxadiazole ring (GPR139 [1]; Ca2+ mobilization): > 50 fold; EC50 (GPR139 [1]; GPR139-CHOk1, read-out: EC50, Ca2+ mobilization): > 10 µM; Ca2+ signal (% of Cmp 1a) (GPR139 [2]; individual replicates (Supplementary Figure 4)): -8 % of Cmp 1a and 68 % of Cmp 1a and 69 % of Cmp 1a
CC(NC(=O)N(C)Cc1cccc(N(C)C)c1)c1csnn1 (stereo not drawn) [Compound 50, CC(NC(=O)N(C)CC=1C=CC=C(C1)N(C)C)C2=CSN=N2]	-2.47 % of Cmp 1a and 0.0154 % of Cmp 1a and -4 % of Cmp 1a	75.065 % of Cmp 1a and 68.1289 % of Cmp 1a and 85.7156 % of Cmp 1a	
Cn1ccc(CNC(=O)Nc2cc(-c3cc(F)cc(F)c3)nn2C)c1 [Compound 39, CN1C=CC(CNC(=O)NC2=CC(=NN2C)C=3C=C(F)C=C(F)C3)=C1]	-2.56 % of Cmp 1a and -1.6 % of Cmp 1a and -1.54 % of Cmp 1a	63.6266 % of Cmp 1a and 84.5465 % of Cmp 1a and 97.4779 % of Cmp 1a	
Cc1cc2c(=O)n(CC(O)C(C)c3ccccc3)cnc2cc1F (stereo not drawn) [Compound 48, CC(C(O)CN1C=NC=2C=C(F)C(C)=CC2C1=O)C=3C=CC=CC3]	3.29 % of Cmp 1a and 10 % of Cmp 1a and 6 % of Cmp 1a	94.1087 % of Cmp 1a and 84.538 % of Cmp 1a and 82.6111 % of Cmp 1a	
